On the set-up of series [1]: method as in Ishida et al., 1999. Conditions: 120 mg/kg, Streptococcus pneumoniae-infected mouse model; ref Ishida et al., 1999; cited from earlier work.
For series [2] the following is noted: in vivo, po, 10 mg/kg.
Series [3] relates to Mycobacterium tuberculosis. The settings on record: determined in different experiments, reference not given; cited from earlier work.
A short description of series [4]: Unbound tissue concentrations (tissue binding by ultracentrifugation of spiked organ homogenate). Conditions: 1 μg/ml, 4 h, 37°C.
The conditions of series [5]: mouse, tissue homogenate.
The conditions of series [6]: 25 mg/kg, healthy murine lung tissue; ref Irwin et al., 2016; cited from earlier work.

Values after ≈ are worked out from the molar mass of the structure shown.

For the compound `C[C@H]1COc2c(N3CCN(C)CC3)c(F)cc3c(=O)c(C(=O)O)cn1c23` [LVX], the maximal lung concentration in series [1] was 5.95 µg/g.

In series [2] (male, C57BL/6, mouse), `CCN(CC)c1ccc2nc3c4ccccc4c(=Nc4ccccc4)cc-3oc2c1` [PhX1] returned an AUC lung tissue of 9669 ± 120.2 min/nmol/mg. The AUC heart tissue in series [2] (mouse) stood at 12450 ± 45.2 min/nmol/mg. The “Cmax (highest concentration) lung tissue” value in series [2] (mouse) came out at 22.4 ± 2.35 nmol/mg. The same compound returned a Cmax heart tissue in series [2] (mouse) of 8.83 ± 3.16 nmol/mg. Also, in series [2] (mouse), the “estimated organ free fraction concentration compared with MIC90” value is reported as “below the MIC90 values”. In series [3], the MIC90 was 0.196 µM (≈ 0.0771 µg/mL). Besides, the Ratio bound in series [4] (Blood) came out at 0.88; in series [4] (Brain) it was 0.98; in series [4] (Heart), 0.98; in series [4] (Kidney) it was 0.97; in series [4] (Liver) it was 0.99; in series [4] (Lung), 0.97. Besides, the Ratio bound in series [4] (Spleen) came to 0.94. Further, the unbound fractions in series [5] was 0.18-0.01.

In the case of `CCCCCCCCCOc1cc2c(=O)c(C(=O)NCCOCCO)cn(CC)c2cc1OCC` [RMB041], the “Cmax (highest concentration) lung tissue” value in series [2] (mouse) amounted to 3.2 nmol/mg. For the same compound, the “estimated organ free fraction concentration compared with MIC90” value in series [2] (mouse) is recorded as “below the MIC90 values”. Besides, in series [3], the MIC90 was 1.61 µM (≈ 0.79 µg/mL). Besides, the Ratio bound came out at 0.82 in series [4] (Blood); 0.98 in series [4] (Brain); 0.97 in series [4] (Heart); 0.97 in series [4] (Kidney); 0.91 in series [4] (Liver); 0.93 in series [4] (Lung). Moreover, the Ratio bound in series [4] (Spleen) stood at 0.92. The unbound fractions in series [5] was 0.18-0.01.

On to `CC1(C)S[C@@H]2[C@H](NC(=O)[C@H](N)c3ccccc3)C(=O)N2[C@H]1C(=O)O` [ampicillin], for which, in series [1], the maximal lung concentration is given as 1.71 µg/g.

Turning to `COc1nc2ccc(Br)cc2cc1[C@@H](c1ccccc1)[C@@](O)(CCN(C)C)c1cccc2ccccc12` [bedaquiline], the Cmax lung tissue in series [6] is recorded as 24 µM.

Turning to `O=C(O)c1cn(C2CC2)c2cc(N3CCNCC3)c(F)cc2c1=O` [ciprofloxacin], the maximal lung concentration in series [1] is reported as 1.10 µg/g.

For orientation: MIC90 means the lowest concentration that inhibits either 90% of growth or 90% of the strains tested, depending on the study.

The record behind these values is publication PMC7248252, “Accumulation of TB-Active Compounds in Murine Organs Relevant to Infection by Mycobacterium tuberculosis” (Frontiers in Pharmacology, 2020).
